Source: PubChem BioAssay (NCI)
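A five-concentration, 48-hour dose response in 96-well plates underlies each endpoint, interpolated linearly between surrounding concentrations. Here, GI50 denotes the concentration required for 50% inhibition of growth. TGI denotes the concentration required for complete inhibition of growth.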

Tests used:
Assay in all cases: NCI tumour cell line growth inhibition, 48 h
A498 renal = tested on: A498 renal
A549 NSCLC = tested on: A549 NSCLC
HCC-2998 colon = tested on: HCC-2998 colon
HCT-15 colon = tested on: HCT-15 colon
MDA-N = tested on: MDA-N
RPMI-8226 leukemia = tested on: RPMI-8226 leukemia
SN12C renal = tested on: SN12C renal
TK-10 renal = tested on: TK-10 renal
KM12 colon = tested on: KM12 colon
RXF 393 renal = tested on: RXF 393 renal

| Structure (SMILES) | TGI (A498 renal) | TGI (A549 NSCLC) | TGI (HCC-2998 colon) | TGI (HCT-15 colon) | TGI (MDA-N) | TGI (RPMI-8226 leukemia) | TGI (SN12C renal) | TGI (TK-10 renal) | TGI (KM12 colon) | TGI (RXF 393 renal) | GI50 (A498 renal) | GI50 (A549 NSCLC) | GI50 (HCC-2998 colon) | GI50 (HCT-15 colon) | GI50 (KM12 colon) | GI50 (RPMI-8226 leukemia) | GI50 (RXF 393 renal) | GI50 (SN12C renal) | GI50 (TK-10 renal) |
| --- | --- | --- | --- | --- | --- | --- | --- | --- | --- | --- | --- | --- | --- | --- | --- | --- | --- | --- | --- |
| O=C(N=Nc1ccccc1Cl)NNc1ccccc1Cl | > 100 µM | > 100 µM | 94.1 µM | > 100 µM | > 100 µM | 65.6 µM | > 100 µM | > 100 µM |  |  |  |  |  |  |  |  |  |  |  |
| O=C1NC(N2CCOCC2)=N/C1=C\c1ccc(O)cc1 |  | > 100 µM | > 100 µM | > 100 µM | > 100 µM | > 100 µM | > 100 µM | > 100 µM | > 100 µM | > 100 µM |  |  |  |  |  |  |  |  |  |
| O=C(OCc1ccccc1)N1CCNCCNCCN(C(=O)OCc2ccccc2)CCNCC1 | 70.1 µM | > 100 µM |  | 50.1 µM | 31.3 µM | 50.8 µM | > 100 µM | 67.2 µM | 70 µM |  |  |  |  |  |  |  |  |  |  |
| O=c1[nH]c(=O)n(C2OC(CO)C(O)C2O)cc1OCCCc1ccccc1 (centres undefined) | > 100 µM | > 100 µM | > 100 µM | > 100 µM | > 100 µM |  | > 100 µM | > 100 µM | > 100 µM | > 100 µM |  |  |  |  |  |  |  |  |  |
| O=[N+]([O-])/C(C(Cl)=C(Cl)Cl)=C(/Nc1cccc2cccnc12)n1nnc2ccccc21 |  | > 100 µM | > 100 µM | 28.1 µM | 27.2 µM | 83.6 µM | 39.5 µM |  | 29.5 µM |  |  |  |  |  |  |  |  |  |  |
| O=c1[nH]nc(Cc2ccc(Cl)cc2)n1/N=C/c1ccc([N+](=O)[O-])o1 | 14.1 µM | > 35.4 µM | 4.82 µM | 11.5 µM |  | 6.48 µM | > 100 µM | 18.5 µM | 6.59 µM | 4.8 µM |  |  |  |  |  |  |  |  |  |
| Oc1ccc(-c2nc3ccccc3s2)cc1 | > 100 µM | > 100 µM |  | > 100 µM | > 100 µM | > 100 µM | > 100 µM |  | 38.8 µM | > 100 µM |  |  |  |  |  |  |  |  |  |
| COc1ccccc1C1C(C#N)=C(N)Oc2n[nH]c(C)c21 (centres undefined) | > 100 µM | > 100 µM | > 100 µM | > 100 µM |  | 29.6 µM | > 100 µM | > 100 µM | > 100 µM | > 100 µM | > 100 µM | > 100 µM | > 100 µM | > 100 µM | > 100 µM | 10.5 µM | > 100 µM | 14.8 µM | > 100 µM |
| CC(C)(C)OC(=O)c1ccc(NCC2=C(Br)C(=O)C=CC2=O)cc1 |  | > 100 µM | 48 µM | 32 µM | 48.1 µM | > 100 µM | 44 µM | 48.2 µM | > 100 µM | 37.5 µM |  |  |  |  |  |  |  |  |  |
| CC1(C)O[C@@H](C[C@]2(C#N)C[C@H](CCl)OC(C)(C)O2)C[C@@H](C#N)O1 | > 100 µM | > 100 µM | > 100 µM | > 100 µM |  | > 100 µM | > 100 µM | > 100 µM | > 100 µM | > 100 µM |  |  |  |  |  |  |  |  |  |
| Cc1nc(-c2cc3ccccc3oc2=O)cs1 |  | > 100 µM | > 100 µM | > 100 µM | > 100 µM | > 100 µM | > 100 µM | > 100 µM | > 100 µM | > 100 µM |  |  |  |  |  |  |  |  |  |
| CCN(CC)C(=O)Cn1c2c(c3ccccc31)CCCC2 | > 100 µM | > 100 µM | > 100 µM | > 100 µM | > 100 µM | > 100 µM | > 100 µM | > 100 µM |  |  |  |  |  |  |  |  |  |  |  |
| COc1cc2nc(-c3cccs3)nc(Nc3cccc(Cl)c3)c2cc1OC | > 100 µM | > 100 µM |  | > 100 µM |  | > 100 µM | > 100 µM | 25.3 µM | > 100 µM |  |  |  |  |  |  |  |  |  |  |
| CC(C)(C)C1=C(Br)C(O)(C(C)(C)C)OP1(=O)c1ccccc1 (centres undefined) | > 100 µM | > 100 µM | > 100 µM | > 100 µM | > 100 µM |  | > 100 µM | > 100 µM | > 100 µM | > 100 µM |  |  |  |  |  |  |  |  |  |
| O=[Se](O)O | > 100 µM | > 100 µM | > 100 µM | > 100 µM |  | > 100 µM | > 100 µM | > 100 µM | > 64.6 µM | 10.3 µM |  |  |  |  |  |  |  |  |  |
| CCN(CC)CC1CCCCN1CC(=O)N1CC(C)C(=O)Nc2ccccc21 (centres undefined) | > 100 µM | > 100 µM | > 100 µM | > 100 µM |  | > 100 µM | > 100 µM |  |  |  |  |  |  |  |  |  |  |  |  |
| Cc1c2cccc-2ccc2c3ccccc3n(C(=O)c3ccc(Cl)cc3)c12 | > 100 µM | > 100 µM |  | > 100 µM |  | > 100 µM | > 100 µM | > 100 µM | > 100 µM | > 100 µM |  |  |  |  |  |  |  |  |  |
| CCCCN(C)/N=N/c1nc[nH]c1C(N)=O | > 100 µM | > 100 µM | > 100 µM | > 100 µM |  | > 100 µM | > 100 µM |  | > 100 µM | > 100 µM |  |  |  |  |  |  |  |  |  |
| O=C(O)/C=C\C(=O)Nn1c(Cc2ccc(Cl)cc2)n[nH]c1=O | > 100 µM | > 100 µM | > 100 µM | > 100 µM | > 100 µM |  | > 100 µM | > 100 µM |  | > 100 µM |  |  |  |  |  |  |  |  |  |
| [N-]=[N+]=NCC(O)Cn1cnc2c(NC(=O)c3ccccc3)ncnc21 (centres undefined) | > 100 µM | > 100 µM | > 100 µM | > 100 µM |  | > 100 µM | > 100 µM | > 100 µM | > 100 µM | > 100 µM |  |  |  |  |  |  |  |  |  |
| Cn1c(=O)sc2cc(C(=S)N3CCCCC3)ccc21 | > 100 µM |  |  | > 100 µM | > 100 µM | > 100 µM | > 100 µM | > 100 µM | > 100 µM | > 100 µM |  |  |  |  |  |  |  |  |  |
| CC1(C)CC[C@]2(C(=O)O)CC[C@]3(C)[C@H](C(=O)C=C4[C@@]5(C)C=C(C#N)C(=O)C(C)(C)[C@@H]5CC[C@]43C)[C@@H]2C1 | 0.977 µM | 5.86 µM |  | 1.7 µM |  | 1.19 µM | 2.97 µM | 2.02 µM | 1.61 µM | 1.5 µM |  |  |  |  |  |  |  |  |  |
| CC1(C)Oc2ccc3c(=O)cc(-c4ccccc4)oc3c2C1C(=O)O (centres undefined) | > 100 µM | > 100 µM | > 100 µM | > 100 µM | > 100 µM |  | > 100 µM | > 100 µM |  | > 100 µM |  |  |  |  |  |  |  |  |  |
